≈ marks a conversion by molar mass, not a printed value. Like-named read-outs stand apart in the source and are kept apart here.
Assays:
B. subtilis 168 [1] = test: Bacteriostatic effect, liquid microdilution, B. subtilis 168; format: cell-based; details: Bacillus subtilis, Example 2
BsSecA [2] = biological target: T1, BsSecA (Bacillus subtilis, UniProt P28366); test: biochemical; format: biochemical, B. subtilis
S. pyogenes, MGAS5005 = test: MIC95, S. pyogenes MGAS5005; format: cell-based
[3] = test system: SecA (S. pyogenes, S. aureus, and E. coli); test: Oocyte assay, inhibition of SecA; details: read-out: IC50, inhibiting SecA in the oocyte assay
S. aureus 6538 = test: Bacteriostatic effect, S. aureus 6538; details: Staphylococcus aureus, 6538, read-out: Bacteriostatic effect, MIC, S. aureus 6538
PaSecA = PaSecA (Pseudomonas aeruginosa, UniProt Q9LCT3); test: cell-based; format: cell-based
Chain of PaSecA (Q9LCT3 whole entry): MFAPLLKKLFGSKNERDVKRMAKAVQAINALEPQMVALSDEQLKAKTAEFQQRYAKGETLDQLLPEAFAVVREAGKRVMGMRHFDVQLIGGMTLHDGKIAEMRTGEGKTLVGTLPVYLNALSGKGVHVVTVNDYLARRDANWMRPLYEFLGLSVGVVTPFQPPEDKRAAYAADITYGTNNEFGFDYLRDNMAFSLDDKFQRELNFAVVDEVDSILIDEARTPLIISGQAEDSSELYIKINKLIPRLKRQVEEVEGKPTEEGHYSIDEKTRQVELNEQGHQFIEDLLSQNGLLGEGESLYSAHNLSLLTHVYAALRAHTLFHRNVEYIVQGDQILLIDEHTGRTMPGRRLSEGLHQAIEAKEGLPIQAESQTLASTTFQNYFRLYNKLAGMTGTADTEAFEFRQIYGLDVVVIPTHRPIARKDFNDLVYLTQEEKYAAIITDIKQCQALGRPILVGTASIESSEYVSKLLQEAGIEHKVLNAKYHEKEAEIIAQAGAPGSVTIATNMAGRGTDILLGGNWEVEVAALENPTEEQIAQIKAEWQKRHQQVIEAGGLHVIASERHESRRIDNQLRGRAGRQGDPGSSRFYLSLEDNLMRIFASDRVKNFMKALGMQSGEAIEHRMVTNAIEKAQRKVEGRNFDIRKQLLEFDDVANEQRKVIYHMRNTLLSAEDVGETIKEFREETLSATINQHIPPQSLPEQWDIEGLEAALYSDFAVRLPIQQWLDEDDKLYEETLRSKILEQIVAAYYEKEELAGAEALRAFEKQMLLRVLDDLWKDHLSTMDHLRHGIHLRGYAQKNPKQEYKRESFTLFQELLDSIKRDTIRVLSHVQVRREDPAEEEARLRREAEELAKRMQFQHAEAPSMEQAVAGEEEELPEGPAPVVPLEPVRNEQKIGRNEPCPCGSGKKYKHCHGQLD

S. aureus 8325-4 = test: Bacteriostatic effect, S. aureus 8325-4 (WT); details: Staphylococcus aureus, 83254, read-out: Bacteriostatic effect, MIC, WT 8325-4
SaSecA2 = biological target: T2, SaSecA2 (Staphylococcus aureus, UniProt Q2FUW6); test: ATPase activity assay (malachite green), SaSecA2
T2 sequence (Q2FUW6 1-796): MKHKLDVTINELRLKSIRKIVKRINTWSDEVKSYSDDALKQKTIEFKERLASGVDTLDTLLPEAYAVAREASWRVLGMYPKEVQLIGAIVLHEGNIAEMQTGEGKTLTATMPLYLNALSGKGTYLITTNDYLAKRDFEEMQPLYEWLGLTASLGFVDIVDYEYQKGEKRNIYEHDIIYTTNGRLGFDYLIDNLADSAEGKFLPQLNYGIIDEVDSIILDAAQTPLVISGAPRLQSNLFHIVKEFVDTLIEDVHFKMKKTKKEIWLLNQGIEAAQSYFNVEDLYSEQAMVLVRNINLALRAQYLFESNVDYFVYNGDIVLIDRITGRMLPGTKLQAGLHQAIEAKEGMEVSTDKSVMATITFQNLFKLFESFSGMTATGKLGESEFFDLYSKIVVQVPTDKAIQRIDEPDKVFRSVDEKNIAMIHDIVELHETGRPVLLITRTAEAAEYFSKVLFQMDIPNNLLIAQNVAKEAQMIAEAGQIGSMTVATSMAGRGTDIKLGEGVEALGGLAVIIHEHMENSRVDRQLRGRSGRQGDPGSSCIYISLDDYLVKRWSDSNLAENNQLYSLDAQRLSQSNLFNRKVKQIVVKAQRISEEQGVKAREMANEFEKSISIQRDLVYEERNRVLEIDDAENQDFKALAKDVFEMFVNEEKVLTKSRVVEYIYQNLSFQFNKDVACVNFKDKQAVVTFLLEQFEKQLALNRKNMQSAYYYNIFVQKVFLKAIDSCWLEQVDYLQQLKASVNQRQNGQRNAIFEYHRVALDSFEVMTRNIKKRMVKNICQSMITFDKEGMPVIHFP

EcSecA [4] = format: biochemical, E. coli; details: at high ATP concentrations
SpSecA = SpSecA (Streptococcus pyogenes, UniProt Q99Y96); format: cell-based; details: read-out: IC50, Ion Channel activity, SpSecA
Chain of SpSecA (Q99Y96 whole entry): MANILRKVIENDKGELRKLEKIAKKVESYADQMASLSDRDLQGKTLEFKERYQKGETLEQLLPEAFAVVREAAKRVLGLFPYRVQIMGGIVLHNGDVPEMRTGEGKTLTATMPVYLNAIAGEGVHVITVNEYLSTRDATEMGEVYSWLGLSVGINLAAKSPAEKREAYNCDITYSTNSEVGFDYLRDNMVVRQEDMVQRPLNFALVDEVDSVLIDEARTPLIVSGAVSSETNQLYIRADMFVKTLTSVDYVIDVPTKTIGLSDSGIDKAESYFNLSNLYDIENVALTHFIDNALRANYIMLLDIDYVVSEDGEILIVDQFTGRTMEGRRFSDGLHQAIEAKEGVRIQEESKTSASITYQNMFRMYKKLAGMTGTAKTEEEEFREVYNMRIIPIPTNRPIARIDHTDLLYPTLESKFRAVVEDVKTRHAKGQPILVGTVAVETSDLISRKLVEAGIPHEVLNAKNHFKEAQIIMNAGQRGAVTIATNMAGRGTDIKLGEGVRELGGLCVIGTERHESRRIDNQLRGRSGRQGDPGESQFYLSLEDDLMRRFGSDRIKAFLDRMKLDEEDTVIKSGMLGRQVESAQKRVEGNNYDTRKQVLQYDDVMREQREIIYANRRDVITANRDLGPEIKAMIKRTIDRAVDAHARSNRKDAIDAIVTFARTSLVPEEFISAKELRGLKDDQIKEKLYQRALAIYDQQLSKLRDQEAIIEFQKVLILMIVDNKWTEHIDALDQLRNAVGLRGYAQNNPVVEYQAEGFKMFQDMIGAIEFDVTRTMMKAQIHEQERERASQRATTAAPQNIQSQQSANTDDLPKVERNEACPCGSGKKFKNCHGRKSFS

S. aureus Mu50 = test: Bacteriostatic effect, S. aureus Mu50; details: Staphylococcus aureus
S. aureus N315 = test: Bacteriostatic effect, S. aureus N315; details: Staphylococcus aureus, N315, read-out: Bacteriostatic effect, MIC, S. aureus N315
S. aureus Mu3 = test: Bacteriostatic effect, S. aureus Mu3; details: Staphylococcus aureus, MU3, read-out: Bacteriostatic effect, MIC, S. aureus Mu3
B. subtilis 168 [5] = test: Bactericidal effect assay, B. subtilis 168; format: cell-based
BsSecA2 = details: read-out: IC50, Intrinsic ATPase, BsSecA2; Table 1
B. anthracis Sterne = test: microbe, parasite or virus in culture; format: cell-based; details: Bacillus anthracis, read-out: Bacteriostatic MIC95, B. anthracis Sterne
[6] = Bactericidal effect in the dark and under light (photooxidation); format: cell-based; details: for Effect of light on the bactericidal effect: under light versus dark
F1F0-proton ATPase = F1F0-proton ATPase (Escherichia coli, UniProt P0ABB0+P0ABB4); test: Proton ATPase activity, reconstituted liposomes; format: biochemical, E. coli
Protocol: The N-terminal catalytic domain of SecA from E. coli (EcN68) was overexpressed from pIMBB28. EcN68 was used for the early and initial screening because it has higher intrinsic activity and is more sensitive to inhibitors. […] SecA proteins were purified as previously described. F1F0-proton ATPase-enriched membrane of E. coli strain KY7485 was prepared as described in the literature. F1F0-proton ATPase was partially purified by sucrose-gradient fractionation and then reconstituted into liposomes by dialysis. Non-radiolabeled and [^35S]-labeled proOmpA were purified as previously described. SecA-depleted BA13 membrane vesicles were prepared as described in the literature,[32] and washed with 6M urea to reduce endogenous ATPase activity.

SaSecA1 = biological target: T3, SaSecA1 (Staphylococcus aureus, UniProt O06446); test: cell-based
T3 sequence (O06446 1-843): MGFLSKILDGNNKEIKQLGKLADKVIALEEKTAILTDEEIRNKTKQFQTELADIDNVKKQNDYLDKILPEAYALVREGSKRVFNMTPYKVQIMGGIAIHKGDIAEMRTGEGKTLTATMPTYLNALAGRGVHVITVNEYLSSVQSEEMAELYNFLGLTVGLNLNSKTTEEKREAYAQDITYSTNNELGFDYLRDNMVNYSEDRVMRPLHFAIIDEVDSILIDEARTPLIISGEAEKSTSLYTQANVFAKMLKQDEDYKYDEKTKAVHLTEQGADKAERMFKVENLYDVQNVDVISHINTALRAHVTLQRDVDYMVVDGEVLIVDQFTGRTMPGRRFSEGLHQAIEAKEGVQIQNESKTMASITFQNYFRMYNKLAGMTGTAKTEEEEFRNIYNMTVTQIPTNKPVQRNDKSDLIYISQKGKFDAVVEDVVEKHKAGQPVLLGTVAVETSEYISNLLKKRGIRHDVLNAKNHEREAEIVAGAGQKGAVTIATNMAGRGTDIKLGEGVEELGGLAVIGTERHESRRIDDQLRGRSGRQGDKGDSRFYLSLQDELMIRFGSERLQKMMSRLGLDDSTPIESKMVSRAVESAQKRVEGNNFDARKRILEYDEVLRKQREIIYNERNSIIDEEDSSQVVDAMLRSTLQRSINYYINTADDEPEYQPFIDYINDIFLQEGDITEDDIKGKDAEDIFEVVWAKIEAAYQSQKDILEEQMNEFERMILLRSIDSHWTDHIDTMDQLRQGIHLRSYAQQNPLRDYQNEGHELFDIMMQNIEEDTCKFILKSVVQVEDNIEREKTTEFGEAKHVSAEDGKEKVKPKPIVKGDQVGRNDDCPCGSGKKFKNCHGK

MsSecA = MsSecA (Mycolicibacterium smegmatis, UniProt P71533); test: SecA-liposomes ion-channel activity in oocytes, MsSecA; format: cell-based; details: Table 1
BaSecA1 = BaSecA1 (Bacillus anthracis, UniProt Q81X26); test: cell-based; details: IC50, Ion Channel activity, BGaSecA 1
EcSecA N68 = EcSecA N68 (Escherichia coli, UniProt P10408); test: biochemical; format: biochemical, E. coli
Chain of EcSecA N68 (P10408 1-610): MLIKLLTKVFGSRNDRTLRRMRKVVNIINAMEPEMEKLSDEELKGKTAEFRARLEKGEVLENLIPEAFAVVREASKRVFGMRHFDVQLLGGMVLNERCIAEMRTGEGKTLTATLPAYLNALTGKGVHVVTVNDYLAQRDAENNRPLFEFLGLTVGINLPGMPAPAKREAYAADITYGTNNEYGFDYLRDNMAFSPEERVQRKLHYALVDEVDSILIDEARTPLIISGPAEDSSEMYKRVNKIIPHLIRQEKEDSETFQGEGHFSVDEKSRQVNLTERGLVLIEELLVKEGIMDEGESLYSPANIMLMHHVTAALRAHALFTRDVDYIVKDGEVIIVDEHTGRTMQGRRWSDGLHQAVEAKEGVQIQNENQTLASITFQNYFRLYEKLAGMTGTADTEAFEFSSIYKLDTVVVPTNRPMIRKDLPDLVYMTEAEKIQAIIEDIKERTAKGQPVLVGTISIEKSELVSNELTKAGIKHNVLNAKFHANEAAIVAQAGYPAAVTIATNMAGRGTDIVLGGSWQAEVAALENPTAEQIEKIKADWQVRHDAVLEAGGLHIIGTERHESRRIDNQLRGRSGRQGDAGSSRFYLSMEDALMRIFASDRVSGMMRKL

EcSecA [7] = biological target: T4, EcSecA (Escherichia coli, UniProt P10408); test: cell-based
Target sequence in this assay (P10408 whole entry): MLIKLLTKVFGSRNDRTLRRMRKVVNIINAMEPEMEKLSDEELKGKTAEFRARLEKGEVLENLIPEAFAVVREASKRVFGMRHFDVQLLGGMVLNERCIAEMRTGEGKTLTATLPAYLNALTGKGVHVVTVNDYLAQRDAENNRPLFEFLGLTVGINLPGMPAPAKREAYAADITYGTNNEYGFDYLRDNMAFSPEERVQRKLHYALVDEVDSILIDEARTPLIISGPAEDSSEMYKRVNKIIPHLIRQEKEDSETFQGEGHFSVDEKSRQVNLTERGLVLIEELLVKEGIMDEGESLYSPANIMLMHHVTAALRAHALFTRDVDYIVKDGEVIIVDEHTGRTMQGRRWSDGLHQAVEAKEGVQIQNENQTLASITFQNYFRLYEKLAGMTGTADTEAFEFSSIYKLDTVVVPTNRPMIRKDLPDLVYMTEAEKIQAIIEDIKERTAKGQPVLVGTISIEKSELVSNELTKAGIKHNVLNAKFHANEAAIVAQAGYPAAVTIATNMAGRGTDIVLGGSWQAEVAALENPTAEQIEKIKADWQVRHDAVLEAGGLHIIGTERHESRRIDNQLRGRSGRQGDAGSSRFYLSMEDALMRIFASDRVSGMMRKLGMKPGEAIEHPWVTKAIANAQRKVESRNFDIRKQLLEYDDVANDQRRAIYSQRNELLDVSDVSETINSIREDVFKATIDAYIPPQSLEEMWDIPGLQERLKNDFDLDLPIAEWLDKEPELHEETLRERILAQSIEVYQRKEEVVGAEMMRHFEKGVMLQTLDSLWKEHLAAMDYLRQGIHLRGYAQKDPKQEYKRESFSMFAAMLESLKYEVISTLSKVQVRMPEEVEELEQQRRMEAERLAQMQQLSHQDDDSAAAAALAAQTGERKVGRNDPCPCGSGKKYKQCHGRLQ

[8] = test system: S. aureus deletion strains (NorA−, MepA−) and strains (NorA++, MepA++) with over-expressed efflux pumps; test: Antimicrobial effect with deletion or over expression of efflux pumps in S. aureus; details: for Bactericidal (killing) effect with over expression of efflux pumps / MIC (bacteriostatic) with over expression of efflux pumps: wild type, NorA−/MepA− and NorA++/MepA++ strains
BsSecA [9] = biological target: T1, BsSecA; test: cell-based; parameters: species or system B. subtilis; details: IC50, Ion Channel activity, BsSecA, Table 1
MtbSecA = MtbSecA (Mycobacterium tuberculosis, UniProt P9WGP5); test: cell-based
EcSecA [10] = biological target: T4, EcSecA; test: biochemical; parameters: species or system E. coli; details: IC50, Intrinsic ATPase, Table 1, full-length EcSecA
Target sequence in this assay (P10408 whole entry): as above

EcSecA [11] = biological target: T4, EcSecA; test: biochemical; details: IC50, Protein Translocation, Table 1
Target sequence in this assay (P0AG99 whole entry): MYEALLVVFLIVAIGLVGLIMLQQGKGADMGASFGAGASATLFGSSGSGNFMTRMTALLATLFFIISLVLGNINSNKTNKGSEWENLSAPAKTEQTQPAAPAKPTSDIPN
Target sequence in this assay (P10408 whole entry): as the sequence (P10408 whole entry) above
Target sequence in this assay (P0AGA2 whole entry, further chain): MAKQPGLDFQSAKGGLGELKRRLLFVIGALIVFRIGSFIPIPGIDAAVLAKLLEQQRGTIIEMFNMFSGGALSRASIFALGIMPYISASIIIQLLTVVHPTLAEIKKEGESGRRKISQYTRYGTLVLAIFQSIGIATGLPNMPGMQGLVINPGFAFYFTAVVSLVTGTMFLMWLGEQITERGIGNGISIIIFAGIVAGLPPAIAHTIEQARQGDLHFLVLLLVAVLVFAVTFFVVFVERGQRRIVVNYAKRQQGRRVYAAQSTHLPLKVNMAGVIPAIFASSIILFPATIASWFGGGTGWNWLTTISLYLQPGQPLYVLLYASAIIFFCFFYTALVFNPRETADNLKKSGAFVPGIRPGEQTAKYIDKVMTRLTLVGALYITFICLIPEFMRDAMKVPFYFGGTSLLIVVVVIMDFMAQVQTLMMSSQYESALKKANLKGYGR
Target sequence in this assay (P0AG96 whole entry, further chain): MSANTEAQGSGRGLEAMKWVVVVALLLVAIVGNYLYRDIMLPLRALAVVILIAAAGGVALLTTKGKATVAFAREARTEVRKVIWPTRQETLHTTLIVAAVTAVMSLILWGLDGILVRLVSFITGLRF

EcSecA [12] = biological target: T4, EcSecA; test: biochemical; details: IC50, Translocation ATPase, Table 1
Target sequence in this assay (P0AG99 whole entry): as the sequence (P0AG99 whole entry) above
Target sequence in this assay (P10408 whole entry): as the sequence (P10408 whole entry) above
Target sequence in this assay (P0AGA2 whole entry, further chain): as the sequence (P0AGA2 whole entry, further chain) above
Target sequence in this assay (P0AG96 whole entry, further chain): as the sequence (P0AG96 whole entry, further chain) above

[13] = test system: secretion of α-hemolysin, enterotoxin B and TSST-1 by S. aureus Mu50; format: cell-based
[14] = IC50, Ion Channel activity, PASecA, Table 1
[15] = IC50, ATPase activity, SaSecA2, Table 7
[16] = IC50, Intrinsic ATPase, SaSecA2, Table 1
[17] = MU50, read-out: Bacteriostatic MIC95, S. aureus Mu50, Table 2
[18] = MU50, read-out: MIC95 against drug resistant S. aureus Mu50

T1 sequence (P28366 whole entry): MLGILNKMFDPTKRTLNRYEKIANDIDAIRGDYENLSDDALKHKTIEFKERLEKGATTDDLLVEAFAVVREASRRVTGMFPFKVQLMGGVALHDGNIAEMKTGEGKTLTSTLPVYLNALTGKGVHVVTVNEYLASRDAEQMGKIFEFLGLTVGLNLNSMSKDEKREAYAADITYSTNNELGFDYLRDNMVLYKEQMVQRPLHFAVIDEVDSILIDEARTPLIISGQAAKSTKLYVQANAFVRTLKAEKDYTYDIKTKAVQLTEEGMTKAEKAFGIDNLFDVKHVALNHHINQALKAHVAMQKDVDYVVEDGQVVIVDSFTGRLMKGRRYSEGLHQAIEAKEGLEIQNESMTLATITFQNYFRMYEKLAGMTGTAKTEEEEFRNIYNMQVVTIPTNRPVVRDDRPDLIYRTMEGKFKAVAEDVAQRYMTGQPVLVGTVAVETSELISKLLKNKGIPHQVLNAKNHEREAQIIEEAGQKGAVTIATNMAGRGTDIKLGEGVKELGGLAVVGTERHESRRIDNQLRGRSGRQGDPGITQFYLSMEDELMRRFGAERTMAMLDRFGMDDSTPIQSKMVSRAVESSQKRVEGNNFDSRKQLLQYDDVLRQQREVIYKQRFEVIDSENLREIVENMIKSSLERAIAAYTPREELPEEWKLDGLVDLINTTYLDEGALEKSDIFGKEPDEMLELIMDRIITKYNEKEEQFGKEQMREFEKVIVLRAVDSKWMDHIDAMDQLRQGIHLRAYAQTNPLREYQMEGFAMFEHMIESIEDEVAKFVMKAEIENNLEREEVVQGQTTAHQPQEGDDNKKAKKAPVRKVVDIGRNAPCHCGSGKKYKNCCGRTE

SMILES | MIC (S. aureus 6538) [µg/mL] | IC50 (PaSecA; [14]) [µM] | MIC (S. aureus 8325-4) [µg/mL] | IC50 (SaSecA2; [15]) [µM] | IC50 (SaSecA2; [16]) [µM] | MIC (S. aureus N315) [µg/mL] | MIC (S. aureus Mu3) [µg/mL] | IC50 (BsSecA2) [µM] | MIC (B. anthracis Sterne) [µg/mL] | Effect of light on the bactericidal effect [6] | IC50 (BsSecA [2]) [µM] | IC50 (MsSecA) [µM] | IC50 (SpSecA) [µM] | IC50 (BaSecA1) [µM] | IC50 (EcSecA N68) [µM] | MIC (S. aureus Mu50; [17]) [µg/mL] | MIC (S. aureus Mu50; [18]) [µM] | IC50 (EcSecA [7]) [µM] | Bactericidal (killing) effect with over expression of efflux pumps [8] | MIC (bacteriostatic) with over expression of efflux pumps [8] | other results
O=C(O)c1c(Cl)c(Cl)c(Cl)c(Cl)c1-c1c2cc(I)c(=O)c(I)c-2oc2c(I)c(O)c(I)cc12 [RB, Rose Bengal] | 38.2 (≈ 39.2 µM) | 0.3 | 13.2 (≈ 13.6 µM) | 2.5 | 1 | 19.1 (≈ 19.6 µM) | 38.2 (≈ 39.2 µM) | 15 | 12.2 (≈ 12.5 µM) | dramatically increased | – | – | – | – | – | – | – | – | – | – | MIC (B. subtilis 168 [1]): 100 µM (≈ 97.4 µg/mL); Effect on the intrinsic ATPase activity of BsSecA (BsSecA [2]; Example 1): inhibitory effects; MIC (S. pyogenes, MGAS5005; Streptococcus pyogenes, MGAS5005, read-out: MIC95, S. pyogenes MGAS5005): 6.25 µM (≈ 6.09 µg/mL); IC50 [3]: 0.4 µM; Inhibition kinetics, channel activity, PaSecA-liposomes (PaSecA; FIG. 3C): non-competitive inhibition; IC50 (PaSecA; Rose Bengal IC50, channel activity, PaSecA, +SecYEG + SecDF•C): 2 µM; IC50 (PaSecA; Rose Bengal IC50, channel activity, PaSecA, BA13, BA13 (first value of BA13/Re-13)): 5.1 µM; IC50 (PaSecA; Rose Bengal IC50, channel activity, PaSecA, Liposome + SecYEG): 1.1 µM; IC50 (PaSecA; Rose Bengal IC50, channel activity, PaSecA, Liposomes): 0.3 µM; IC50 (PaSecA; Rose Bengal IC50, channel activity, PaSecA, Re-13, Re-13 (second value of BA13/Re-13)): 0.3 µM; Mode of inhibition against ATP (EcSecA [4]): competitive inhibition; IC50 (SpSecA; Table 1): 0.9 µM; MIC (S. aureus Mu50; MU50, read-out: Bacteriostatic MIC95, S. aureus Mu50): 40.7 µg/mL; MIC (S. aureus Mu50; MU50, read-out: Bacteriostatic effect MIC, S. aureus Mu50): 50.8 µg/mL; MIC (S. aureus Mu50; MU50, read-out: Bacteriostatic effect, MIC, S. aureus Mu50): 50.8 µg/mL; Bactericidal effect, kill of B. subtilis 168 (B. subtilis 168 [5]; 20 μM, one hour, FIG. 2): little effect; Decrease of cell survival (CFU) (B. subtilis 168 [5]; 100 μM, one-hour treatment): ~8 log units; Bactericidal effect in the dark ([6]; dark): little bactericidal effect; IC50 (F1F0-proton ATPase): ~10 µM
CSc1nc(Sc2nnc(-c3cc(C(F)(F)F)cc(C(F)(F)F)c3)[nH]2)cc(Sc2nnc(-c3cc(C(F)(F)F)cc(C(F)(F)F)c3)[nH]2)n1 [SCA-21] | – | – | – | – | 43 | – | – | 45 | 3 (≈ 4.01 µM) | – | > 100 | 2 | 1 | 1.5 | 18 | 1.5 | 1.5 | 2.4 | not attenuated | did not increase | MIC (S. pyogenes, MGAS5005; Streptococcus pyogenes, MGAS5005; read-out: MIC95, S. pyogenes MGAS5005): 0.39 µM (≈ 0.292 µg/mL); IC50 (SaSecA1): 1.6 µM; IC50 (BsSecA [9]): 2.6 µM; IC50 (MtbSecA): 2 µM; IC50 (EcSecA [10]): 32 µM; IC50 (EcSecA [11]): 21 µM; IC50 (EcSecA [12]): 20 µM
Oc1ccc2c(c1)Oc1cc(O)ccc1C2C1CCCC1 [SCA-41] | 10.6 (≈ 37.5 µM) | 3.6 | 11.8 (≈ 41.8 µM) | 32.5 | 6 | 14.1 (≈ 49.9 µM) | 14.1 (≈ 49.9 µM) | 30 | 1.1 (≈ 3.9 µM) | not affected by light | 30 | 3.5 | 3 | 3.8 | 8 | 1.7 | 1.7 | 3.4 | not attenuated | did not increase | MIC (S. aureus Mu50; MU50, read-out: Bacteriostatic effect MIC, S. aureus Mu50, Table 10 and Example 4): 8.8 µg/mL; MIC (S. aureus Mu50; MU50, read-out: Bacteriostatic effect, MIC, S. aureus Mu50, Table 8): 8.8 µg/mL; Amount of α-hemolysin, enterotoxin B, and TSST-1 in the supernatant [13]: significantly decreased; Change of MIC on overexpression or deletion of NorA or MepA [8]: did not significantly change; IC50 (BsSecA [9]): 3 µM; IC50 (MtbSecA): 3.2 µM; IC50 (EcSecA [10]): 30 µM; IC50 (EcSecA [11]): 55 µM; IC50 (EcSecA [12]): 15 µM

From patent US9957247B2, “SecA inhibitors and methods of making and using thereof” (Georgia State University Research Foundation, Inc., priority 2012, dated 2018)
